Measured values as given in patent publication US20090054392A1, “NAPHTHYLPYRIMIDINE, NAPHTHYLPYRAZINE AND NAPHTHYLPYRIDAZINE ANALOGS AND THEIR USE AS AGONISTS OF THE WNT-BETA-CATENIN CELLULAR MESSAGING SYSTEM” (Wyeth, priority 2007, published 2009).
pEC50: −log10 of the molar value.

Tested on: Dkk1-LRP5-TCF-Luciferase
Experiment: Functional Dkk1-LRP5-TCF-Luciferase Assay in U2OS Cells
Settings: for fold induction at 20 µM / pEC50 / fold induction at 2 µM: Homo sapiens, U2OS; for fold induction at 20 µM: read-out: C = TCF ACTIVITY/DMSO CONTROL Fold induction @ 20.0 uM, 20.0 uM compound; for A = MAX FOLD Induction/DMSO CONTROL: maximum fold induction over DMSO control; for fold induction at 2 µM: read-out: B = TCF ACTIVITY/DMSO CONTROL Fold induction @ 2.0 uM, 2.0 uM compound

Row | A = MAX FOLD Induction/DMSO CONTROL [fold] | pEC50 | SMILES | fold induction at 20 µM | fold induction at 2 µM
1 | 1.590 | – | COC(=O)[C@@H](N)C1CCN(c2nccc(-c3ccc4ccccc4c3)n2)CC1 [methyl (2S)-amino{1-[4-(2-naphthyl)pyrimidin-2-yl]piperidin-4-yl}acetate] | 0.57 | –
2 | 1.360 | – | COC(=O)N1CC[C@@H](Nc2nccc(-c3ccc4ccccc4c3)n2)C1 [methyl (3R)-3-{[4-(2-naphthyl)pyrimidin-2-yl]amino}pyrrolidine-1-carboxylate] | 2.35 | –
3 | 2.725 | 5.56 | COC(=O)N1CC[C@H](Nc2nccc(-c3ccc4ccccc4c3)n2)C1 [methyl (3S)-3-{[4-(2-naphthyl)pyrimidin-2-yl]amino}pyrrolidine-1-carboxylate] | 2.12 | 1.65
4 | 2.490 | 4.91 | COC(=O)N[C@H]1CC[C@H](Nc2nccc(-c3ccc4ccccc4c3)n2)CC1 [methyl (trans-4-{[4-(2-naphthyl)pyrimidin-2-yl]amino}cyclohexyl)carbamate] | 1.66 | 2.53
5 | – | – | COC(=O)NCC1CN(c2nccc(-c3ccc4ccccc4c3)n2)C1 [methyl ({1-[4-(2-naphthyl)pyrimidin-2-yl]azetidin-3-yl}methyl)carbamate] | 1.08 | 1.28
6 | – | – | COC(=O)NCC1CCN(c2nccc(-c3ccc4ccccc4c3)n2)CC1 [methyl ({1-[4-(2-naphthyl)pyrimidin-2-yl]piperidin-4-yl}methyl)carbamate] | 1.59 | 1.21
7 | – | – | COC(=O)NCC1CCN(c2nccc(-c3ccc4ccccc4c3)n2)C1 (centres unmarked) [methyl ({1-[4-(2-naphthyl)pyrimidin-2-yl]pyrrolidin-3-yl}methyl)carbamate] | 1.08 | 1.04
8 | – | – | COC(=O)C(NC(=O)OC(C)(C)C)=C1CCN(c2nccc(-c3ccc4ccccc4c3)n2)CC1 [methyl [(tert-butoxycarbonyl)amino]{1-[4-(2-naphthyl)pyrimidin-2-yl]piperidin-4-ylidene}acetate] | 1.24 | 1.01
9 | – | – | COC(=O)C(NC(=O)OC(C)(C)C)C1CCN(c2nccc(-c3ccc4ccccc4c3)n2)CC1 (centres unmarked) [methyl [(tert-butoxycarbonyl)amino]{1-[4-(2-naphthyl)pyrimidin-2-yl]piperidin-4-yl}acetate] | 0.71 | –
10 | 2.360 | 5.48 | COC(=O)C(N)C1CCN(c2nccc(-c3ccc4ccccc4c3)n2)CC1 (centres unmarked) [methyl amino{1-[4-(2-naphthyl)pyrimidin-2-yl]piperidin-4-yl}acetate] | 0.03 | –
11 | – | – | COC(=O)N(C)CCN(C)[C@@H]1CCN(c2nccc(-c3ccc4ccccc4c3)n2)C1 [methyl methyl[2-(methyl{(3R)-1-[4-(2-naphthyl)pyrimidin-2-yl]pyrrolidin-3-yl}amino)ethyl]carbamate] | 1.2 | –
12 | 0.890 | – | COC(=O)N[C@@H]1CCN(c2nccc(-c3ccc4ccccc4c3)n2)C1 [methyl {(3R)-1-[4-(2-naphthyl)pyrimidin-2-yl]pyrrolidin-3-yl}carbamate] | 0.43 | 2.2
13 | – | – | COC(=O)N[C@H]1CCN(c2nccc(-c3ccc4ccccc4c3)n2)C1 [methyl {(3S)-1-[4-(2-naphthyl)pyrimidin-2-yl]pyrrolidin-3-yl}carbamate] | 1.63 | 1.03
14 | – | – | CC(C)(C)OC(=O)N1CC(CNc2nccc(-c3ccc4ccccc4c3)n2)C1 [tert-butyl 3-({[4-(2-naphthyl)pyrimidin-2-yl]amino}methyl)azetidine-1-carboxylate] | 1.02 | 1.8
15 | – | – | COC(=O)C(Nc1nccc(-c2ccc3ccccc3c2)n1)C1CCN(C(=O)OC(C)(C)C)CC1 (centres unmarked) [tert-butyl 4-(2-methoxy-1-{[4-(2-naphthyl)pyrimidin-2-yl]amino}-2-oxoethyl)piperidine-1-carboxylate] | – | 1.62
16 | – | – | CC(C)(C)OC(=O)N1CCN(C[C@H]2CCN(c3nccc(-c4ccc5ccccc5c4)n3)C2)CC1 [tert-butyl 4-({(3R)-1-[4-(2-naphthyl)pyrimidin-2-yl]pyrrolidin-3-yl}methyl)piperazine-1-carboxylate] | – | 1.95
17 | – | – | CC(C)(C)OC(=O)N1CCN(C[C@@H]2CCN(c3nccc(-c4ccc5ccccc5c4)n3)C2)CC1 [tert-butyl 4-({(3S)-1-[4-(2-naphthyl)pyrimidin-2-yl]pyrrolidin-3-yl}methyl)piperazine-1-carboxylate] | 0.85 | 1.16
18 | – | – | CC(C)(C)OC(=O)N1CCC(CNc2nccc(-c3ccc4ccccc4c3)n2)CC1 [tert-butyl 4-({[4-(2-naphthyl)pyrimidin-2-yl]amino}methyl)piperidine-1-carboxylate] | 1.18 | 0.93
19 | – | – | CC(C)(C)OC(=O)N1CCN(c2nccc(-c3ccc4ccccc4c3)n2)CC1 [tert-butyl 4-[4-(2-naphthyl)pyrimidin-2-yl]piperazine-1-carboxylate] | 1.94 | 0.98

Row | A = MAX FOLD Induction/DMSO CONTROL [fold] | pEC50 | SMILES | fold induction at 20 µM | fold induction at 2 µM
20 | – | – | CC(C)(C)OC(=O)N1CCC(Nc2nccc(-c3ccc4ccccc4c3)n2)CC1 [tert-butyl 4-{[4-(2-naphthyl)pyrimidin-2-yl]amino}piperidine-1-carboxylate] | 1.41 | 1
21 | – | – | CN(c1nccc(-c2ccc3ccccc3c2)n1)C1CCN(C(=O)OC(C)(C)C)CC1 [tert-butyl 4-{methyl[4-(2-naphthyl)pyrimidin-2-yl]amino}piperidine-1-carboxylate] | 1.92 | 0.98
22 | – | – | CC(NC(=O)OC(C)(C)C)C1CCN(c2nccc(-c3ccc4ccccc4c3)n2)CC1 (centres unmarked) [tert-butyl (1-{1-[4-(2-naphthyl)pyrimidin-2-yl]piperidin-4-yl}ethyl)carbamate] | 0.81 | –
23 | – | – | CC(C)(C)OC(=O)NC1CCCC(Nc2nccc(-c3ccc4ccccc4c3)n2)C1 (centres unmarked) [tert-butyl (3-{[4-(2-naphthyl)pyrimidin-2-yl]amino}cyclohexyl)carbamate] | 0.3 | 1.07
24 | – | – | CC(C)(C)OC(=O)N1CC[C@H](CNc2nccc(-c3ccc4ccccc4c3)n2)C1 [tert-butyl (3R)-3-({[4-(2-naphthyl)pyrimidin-2-yl]amino}methyl)pyrrolidine-1-carboxylate] | – | 1.83
25 | 0.800 | – | CC(C)(C)OC(=O)N1CC[C@@H](Nc2nccc(-c3ccc4ccccc4c3)n2)C1 [tert-butyl (3R)-3-{[4-(2-naphthyl)pyrimidin-2-yl]amino}pyrrolidine-1-carboxylate] | 0.01 | 2.38
26 | – | – | CC(C)(C)OC(=O)N1CC[C@@H](CNc2nccc(-c3ccc4ccccc4c3)n2)C1 [tert-butyl (3S)-3-({[4-(2-naphthyl)pyrimidin-2-yl]amino}methyl)pyrrolidine-1-carboxylate] | 0.01 | –
27 | 1.270 | – | CC(C)(C)OC(=O)N1CC[C@H](Nc2nccc(-c3ccc4ccccc4c3)n2)C1 [tert-butyl (3S)-3-{[4-(2-naphthyl)pyrimidin-2-yl]amino}pyrrolidine-1-carboxylate] | – | 2.11
28 | – | – | CC(C)(C)OC(=O)N[C@@H](CO)C1CCN(c2nccc(-c3ccc4ccccc4c3)n2)CC1 [tert-butyl ((1R)-2-hydroxy-1-{1-[4-(2-naphthyl)pyrimidin-2-yl]piperidin-4-yl}ethyl)carbamate] | 0.35 | 1.13
29 | – | – | CC(C)(C)OC(=O)N[C@H](C1CCN(c2nccc(-c3ccc4ccccc4c3)n2)CC1)C(C)(C)O [tert-butyl ((1R)-2-hydroxy-2-methyl-1-{1-[4-(2-naphthyl)pyrimidin-2-yl]piperidin-4-yl}propyl)carbamate] | – | 1.79
30 | – | – | C[C@H](NC(=O)OC(C)(C)C)C1CCN(c2nccc(-c3ccc4ccccc4c3)n2)CC1 [tert-butyl ((1S)-1-{1-[4-(2-naphthyl)pyrimidin-2-yl]piperidin-4-yl}ethyl)carbamate] | 1.08 | –
31 | – | – | CC(C)(C)OC(=O)N[C@H](CO)C1CCN(c2nccc(-c3ccc4ccccc4c3)n2)CC1 [tert-butyl ((1S)-2-hydroxy-1-{1-[4-(2-naphthyl)pyrimidin-2-yl]piperidin-4-yl}ethyl)carbamate] | 0.44 | 1.22
32 | – | – | CC(C)(C)OC(=O)NCC1CN(c2nccc(-c3ccc4ccccc4c3)n2)C1 [tert-butyl ({1-[4-(2-naphthyl)pyrimidin-2-yl]azetidin-3-yl}methyl)carbamate] | 0.46 | 1.41
33 | – | – | CC(C)(C)OC(=O)NCC1CCCN(c2nccc(-c3ccc4ccccc4c3)n2)C1 (centres unmarked) [tert-butyl ({1-[4-(2-naphthyl)pyrimidin-2-yl]piperidin-3-yl}methyl)carbamate] | 1.94 | 0.91
34 | – | – | CC(C)(C)OC(=O)NCC1CCN(c2nccc(-c3ccc4ccccc4c3)n2)C1 (centres unmarked) [tert-butyl ({1-[4-(2-naphthyl)pyrimidin-2-yl]pyrrolidin-3-yl}methyl)carbamate] | 0.17 | 1.09
35 | – | – | CC(C)(C)OC(=O)NC1CCCN(c2nccc(-c3ccc4ccccc4c3)n2)CC1 (centres unmarked) [tert-butyl {1-[4-(2-naphthyl)pyrimidin-2-yl]azepan-4-yl}carbamate] | 0.33 | 1.34
36 | – | – | CC(C)(C)OC(=O)NC1CCN(c2nccc(-c3ccc4ccccc4c3)n2)CC1 [tert-butyl {1-[4-(2-naphthyl)pyrimidin-2-yl]piperidin-4-yl}carbamate] | 1.91 | 0.93
37 | – | – | CC(C)(C)OC(=O)NCCC1CN(c2nccc(-c3ccc4ccccc4c3)n2)C1 [tert-butyl {2-[1-(4-naphthalen-2-ylpyrimidin-2-yl)azetidin-3-yl]ethyl}carbamate] | 1.6 | –
